The text below walks through data of article PMC6018554, “2-[2-(4-(trifluoromethyl)phenylamino)thiazol-4-yl]acetic acid (Activator-3) is a potent activator of AMPK” (Scientific Reports, 2018).

“Also recorded” adds a separate entry of the source. Read-outs that look alike come from different tables or passages of the source.

Data set [1] concerns the target human recombinant AMPK α2β1γ1 (Homo sapiens, UniProt P54619). Description: In vitro AMP kinase assay (pACC ELISA), α2β1γ1. The format is biochemical. The arrangement: purchased SignalChem P47-10H-05/P48-10H-05 (for all four isozymes together); host or cells: baculovirus expression. An excerpt: (§1) Having observed the effect of Activator-3 on the activation of AMPK in cell based assays, we next examined whether Activator-3 could activate AMPK directly or not. […] The activity of recombinant human AMPK (α1β1γ1, α2β1γ1, α2β2γ2 and α2β2γ3) in the presence of vehicle was considered as 100%. The EC50 of Activator-3 for the activation of α1β1γ1, α2β1γ1 and α2β2γ2 isozymes were similar. However, the activity of Activator-3 against α2β2γ3 was marginally higher (Fig. 1C).
(§2) A high binding Enzyme Immuno Assay (EIA) 96-well plate (Sigma: Cat# CLS3590) was coated with Acetyl CoA Carboxylase 2 (ACC: 175–271 amino acids) peptide, a direct substrate for AMPK, 100 ng per well (1:1000 ratio, Cat# 12–491, Upstate biotechnology) and incubated overnight at 25 °C. Reaction mixture was incubated at 30 °C for 2 h and reaction was stopped by washing the plate with 0.05% Tween 20 followed by incubation with pACC primary antibody and rabbit secondary antibody as described in cell based ELISA section. Assay buffer is composed of 10 mM DTT, 100 mM magnesium acetate, 50 μM ATP and 10 mM HEPES.

Data set [2] in a line: Pharmacokinetic study in male rats. The format is in vivo, rat. The method, then: Male SD rats were orally administered 30 mg/Kg of Activator-3. Blood and brain samples were collected at specified time points and were analyzed for Activator-3 using a LC-MS/MS method[64]–[66]. […] The human plasma protein binding was ~80% (data not shown). […] Systemic exposure of Activator-3 was very high in plasma compared to brain.
Male SD rats were orally administered with 30 mg/Kg of Activator-3. Blood and brain samples were collected at specified time points and were analyzed for Activator-3 using optimized LC-MS/MS method[64]–[66].

Data set [3] concerns human recombinant AMPK isozymes. Description: In vitro AMP kinase assays, isozymes taken together. It counts as biochemical. The method, then: as §2
The target in data set [4] is T1, recombinant human AMPK α2β2γ3 (Homo sapiens, UniProt Q9UGI9).
T1 construct: purchased SignalChem; host or cells: baculovirus expression
Description: In vitro AMP kinase assay (pACC ELISA), α2β2γ3. The format is biochemical.
Description: as §1, §2

The subject of data set [5] is HSD fed diabetic rats. The data set is described as follows: HSD fed insulin resistant diabetic rats. The format is in vivo, rat. The method, then:
Approximately 100 mg of soleus muscle tissue was taken and lysed with RIPA lysis buffer. Lysates were resolved on 12% SDS–polyacrylamide gels and were transferred to PVDF membrane (Millipore, USA). Membrane was blocked with 5% nonfat milk in TRIS buffered saline (TBS; 10 mM TRIS (pH 8.0), 150 mM NaCl) for 1 hour and probed with primary antibody of interest: phospho-AMPK (Thr^172) (1:1000; Cell Signaling Technology, USA), phospho-ACC (Ser^79) (1:1000; Cell Signaling Technology, USA), total AMPK (1:1000; Cell Signaling Technology, USA), total ACC (1:1000; Cell Signaling Technology, USA), and total Actin (1:1000; Santa Cruz Biotechnology, USA). Subsequently, membranes were incubated with corresponding HRP-conjugated secondary antibodies. The chemiluminescence signals were captured on photographic films using an enhanced chemiluminescence (Thermo Scientific, USA).The loading controls of phospho-ACC and phospho-AMPK in Fig. 6J were probed in parallel gels.
Twelve weeks old healthy colony bred male Wistar rats, weighing about 150–200 grams were purchased from the animal research facility (Cadila Pharma limited, Ahmedabad, India) and maintained at the animal house of Institute of pharmacy (Nirma University, India). All the methods were carried out in accordance with the approved guidelines. Experimental protocol involving animals was reviewed and approved by the Animal Ethical Committee of Institute of Science, Nirma University, Ahmedabad, India (Protocol No. IS/FAC/14-1/021) Animals were maintained in polypropylene cages in a standard photoperiod (12 h light:12 h dark cycle) and temperature (27 ± 1 °C) controlled room with the provision of laboratory food (Gold Mohur feeds Ltd, New Delhi, India) and water ad libitum. Animals were segregated into three different experimental groups with 6 animals in each as follows: non-diabetic group with standard chow diet (control group, CD), Diabetic group with high sucrose diet (65%, treated group, HSD)[84] and HSD with AMPK Activator-3 treated group (10 mg/kg body weight of animal). Post HSD induction animals were treated with AMPK Activator-3 for 30 days.
Animals were subjected to an OGTT at a beginning of the treatment (0 day) and a day before the end of the experiment (30 day). OGTT was performed after 12 h of the fasting. Briefly, after fasting, animals were given a glucose load (2 g/kg) orally. Blood samples were collected from the animal tail vein at 0 min (before glucose administration) and at 15, 30, 60, 90 and 120 min after glucose administration. Glucose concentration was determined using a CareSensN blood glucose monitor and glucose strips. Area under the curve for glucose (AUCglucose) was calculated using the trapezoidal rule.
Approximately, 1 ml of the blood samples was collected from the retro-orbital plexus of the animals under the mild anesthesia using diethyl ether. Blood was then transferred to the microfuge tubes for separation of plasma and serum at 0 day (start of the treatment) and the last day of the experiment (30 day). Total cholesterol and triglycerides levels were estimated from plasma using a diagnostic kit from Accucare India Ltd according to the protocol mentioned by the manufacturer.
Plasma FFA was estimated using chloroform and triethyalanomine extraction method by measuring the absorbance at 440 nm. The stearic acid was used as standard fatty acid and detailed protocol was performed as mentioned[85],[86]. […]

Data set [6] deals with T2, DDR1 (Homo sapiens, UniProt Q08345).
T2 construct: purchased Kinexus, Canada (screening service)
Description: Cell-free kinase panel (Kinexus). The format is biochemical. As to conditions: 10 µM. The method, then: To determine whether Activator-3 affects the activity of any other protein kinases, we screened it in cell-free assays against a panel of 100 protein kinases (Kinexus, Canada). […] Three kinases, DDR1 (−79%), SRC (−71%) and ALK5 (−61%) were inhibited by Activator-3 by more than 50% at 10 µM.

Data set [7] concerns PFK1. Description: PFK activity assay kit. The format is biochemical. As to conditions: Activator-3 at 10 µM (≤10 µM).
The mark [8] stands for this setting: 10 mg/kg oral once a day, 30th day.

T1 sequence (Q9UGI9 whole entry): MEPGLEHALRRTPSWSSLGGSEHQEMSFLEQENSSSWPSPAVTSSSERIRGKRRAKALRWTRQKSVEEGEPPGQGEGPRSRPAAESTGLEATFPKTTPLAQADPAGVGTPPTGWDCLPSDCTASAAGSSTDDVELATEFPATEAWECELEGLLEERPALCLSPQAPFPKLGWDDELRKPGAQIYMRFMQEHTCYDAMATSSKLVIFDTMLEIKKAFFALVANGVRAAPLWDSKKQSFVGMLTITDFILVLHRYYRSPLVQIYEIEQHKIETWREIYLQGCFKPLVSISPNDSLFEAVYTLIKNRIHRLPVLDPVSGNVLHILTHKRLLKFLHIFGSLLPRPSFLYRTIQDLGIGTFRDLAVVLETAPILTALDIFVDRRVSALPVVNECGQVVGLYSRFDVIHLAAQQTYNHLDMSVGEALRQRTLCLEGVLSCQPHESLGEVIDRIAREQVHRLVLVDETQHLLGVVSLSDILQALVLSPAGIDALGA
T1 sequence (P54646 whole entry partner): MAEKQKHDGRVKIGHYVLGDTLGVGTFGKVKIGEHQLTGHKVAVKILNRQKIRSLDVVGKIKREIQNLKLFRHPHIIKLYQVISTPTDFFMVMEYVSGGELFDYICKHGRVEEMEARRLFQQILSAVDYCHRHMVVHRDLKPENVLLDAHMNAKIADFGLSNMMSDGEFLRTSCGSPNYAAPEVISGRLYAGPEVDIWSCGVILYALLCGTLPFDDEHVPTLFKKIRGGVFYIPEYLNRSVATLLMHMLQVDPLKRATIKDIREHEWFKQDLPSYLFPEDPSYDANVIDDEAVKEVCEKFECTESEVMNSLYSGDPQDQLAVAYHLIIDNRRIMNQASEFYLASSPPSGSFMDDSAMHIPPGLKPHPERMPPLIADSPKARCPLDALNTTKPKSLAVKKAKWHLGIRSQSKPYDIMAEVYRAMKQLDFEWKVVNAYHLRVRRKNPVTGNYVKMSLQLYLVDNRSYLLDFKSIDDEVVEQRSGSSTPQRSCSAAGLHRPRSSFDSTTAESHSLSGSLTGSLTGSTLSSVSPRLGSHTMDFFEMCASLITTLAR
T1 sequence (O43741 whole entry partner): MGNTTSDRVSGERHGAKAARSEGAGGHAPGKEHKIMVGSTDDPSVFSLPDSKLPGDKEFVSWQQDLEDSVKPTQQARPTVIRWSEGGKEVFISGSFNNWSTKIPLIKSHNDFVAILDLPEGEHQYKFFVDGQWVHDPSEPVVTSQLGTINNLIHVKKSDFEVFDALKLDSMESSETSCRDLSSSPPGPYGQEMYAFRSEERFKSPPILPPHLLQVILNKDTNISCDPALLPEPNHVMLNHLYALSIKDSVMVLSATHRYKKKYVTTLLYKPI
Chain of human recombinant AMPK α2β1γ1 (P54619 whole entry): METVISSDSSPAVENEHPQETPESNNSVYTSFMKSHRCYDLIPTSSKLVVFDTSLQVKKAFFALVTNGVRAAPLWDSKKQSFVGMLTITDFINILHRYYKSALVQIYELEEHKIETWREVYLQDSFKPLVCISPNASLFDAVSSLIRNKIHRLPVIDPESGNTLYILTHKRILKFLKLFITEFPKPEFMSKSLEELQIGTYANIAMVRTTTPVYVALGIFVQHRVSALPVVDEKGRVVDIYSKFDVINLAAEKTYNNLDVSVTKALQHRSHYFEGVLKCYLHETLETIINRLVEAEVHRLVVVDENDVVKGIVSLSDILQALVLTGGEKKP
Chain of human recombinant AMPK α2β1γ1 (P54646 whole entry partner): as the sequence (P54646 whole entry partner) above
Chain of human recombinant AMPK α2β1γ1 (Q9Y478 whole entry partner): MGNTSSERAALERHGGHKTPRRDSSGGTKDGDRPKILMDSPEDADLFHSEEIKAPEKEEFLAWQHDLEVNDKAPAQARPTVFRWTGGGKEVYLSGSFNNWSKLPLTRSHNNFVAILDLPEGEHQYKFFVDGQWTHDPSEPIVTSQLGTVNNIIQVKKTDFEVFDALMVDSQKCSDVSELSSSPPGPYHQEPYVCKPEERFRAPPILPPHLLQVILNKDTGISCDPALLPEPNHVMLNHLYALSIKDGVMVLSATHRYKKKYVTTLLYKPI
T2 sequence (Q08345 19-913, species assumed): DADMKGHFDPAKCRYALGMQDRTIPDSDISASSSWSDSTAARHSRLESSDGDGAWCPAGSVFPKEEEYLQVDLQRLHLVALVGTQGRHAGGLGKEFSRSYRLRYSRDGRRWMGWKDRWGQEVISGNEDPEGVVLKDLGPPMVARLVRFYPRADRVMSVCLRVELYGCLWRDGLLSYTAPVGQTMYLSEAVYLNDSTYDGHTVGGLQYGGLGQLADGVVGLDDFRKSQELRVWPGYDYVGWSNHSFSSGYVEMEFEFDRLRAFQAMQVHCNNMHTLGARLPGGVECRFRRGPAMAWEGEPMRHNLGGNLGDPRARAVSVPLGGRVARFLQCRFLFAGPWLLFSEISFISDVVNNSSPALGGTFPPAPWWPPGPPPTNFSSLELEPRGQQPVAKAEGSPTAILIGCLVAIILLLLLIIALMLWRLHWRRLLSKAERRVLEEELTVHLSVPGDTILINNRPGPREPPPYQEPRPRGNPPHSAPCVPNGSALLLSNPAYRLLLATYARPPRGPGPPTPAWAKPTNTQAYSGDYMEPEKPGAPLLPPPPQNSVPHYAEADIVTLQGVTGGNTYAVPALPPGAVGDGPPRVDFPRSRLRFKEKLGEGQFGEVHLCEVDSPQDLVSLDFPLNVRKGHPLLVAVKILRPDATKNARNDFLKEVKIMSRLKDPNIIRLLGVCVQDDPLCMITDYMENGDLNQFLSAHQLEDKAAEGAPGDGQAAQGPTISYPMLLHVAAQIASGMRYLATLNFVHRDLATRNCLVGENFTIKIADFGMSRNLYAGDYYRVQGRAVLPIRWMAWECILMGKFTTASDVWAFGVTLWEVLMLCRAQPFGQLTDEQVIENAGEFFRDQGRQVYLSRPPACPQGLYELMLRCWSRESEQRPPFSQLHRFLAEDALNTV

For the molecule `O=C(O)Cc1csc(Nc2ccc(C(F)(F)F)cc2)n1` [Activator-3, 2-[2-(4-(trifluoromethyl)phenylamino)thiazol-4-yl]acetic acid], the “reduction of AMPK activity stimulated by 100 µM AMP” value in data set [1] (Activator-3 1 nM to 10 μM with 100 µM AMP) is listed as ~ 50%. Further, the figures for the EC50 in data set [1] (read-out: EC50 allosteric activation hα2β1γ1) and in data set [4] (read-out: EC50 allosteric activation hα2β2γ3) were roughly 23 nM and roughly 4 nM, respectively. The t1/2 in data set [2] (male SD rats, oral 30 mg/Kg, plasma, 30 mg/kg) was ~ 4 h. Besides, the “level in brain / brain penetration” value in data set [2] (male SD rats, oral 30 mg/Kg, 30 mg/kg) was “No significant level; also recorded: no brain penetration”. This molecule showed a half-life in data set [2] (male, SD, rat, plasma, po, 30 mg/kg, male SD rats, oral 30 mg/Kg) of 4.11 h. Also, the bioavailability entry in data set [2] (rat, oral) is given as “good bioavailability”. The Cmax was roughly 109 µg/mL in data set [2] (rat, plasma, male SD rats, oral 30 mg/Kg, read-out: Cmax in plasma) and roughly 360 µM in data set [2] (rat, plasma, male SD rats, oral 30 mg/Kg, read-out: Cmax in plasma, molar). The AUC in data set [2] (rat, plasma, male SD rats, oral 30 mg/Kg, read-out: Systemic exposure in plasma (AUC)) was roughly 978 µg·h/mL; in data set [2] (rat, plasma, male SD rats, oral 30 mg/Kg, read-out: Systemic exposure in plasma (AUC), molar) it was roughly 3300 µM·h. The “activation of AMPK” value in data set [3] is given as 30–40%. Further, the “increase of AMPK activity over 100 µM AMP alone” value in data set [4] (co-treatment Activator-3 and 100 µM AMP) is reported as greater than 30%. The “glucose concentration in OGTT vs HSD group” value in data set [5] (setting [8]) is listed as “significantly reduced”. In data set [5] (setting [8]), the “plasma free fatty acid vs HSD group” value is given as “significantly lower”. Also, in data set [5] (setting [8]), the “plasma total cholesterol vs HSD group” value is “significantly lower”. The “HSD induced body weight gain” value in data set [5] (10 mg/kg oral once a day, 30 days, p < 0.05) is “decreased”. Also, in data set [5] (10 mg/kg/day for 30 days, western blot), the “phosphorylation of AMPK and ACC in soleus muscle” value was “restored”. In addition, the activity change in data set [6] is −79%. Also, in data set [7], the “effect on PFK1 activity” value was “unaffected; also recorded: no effect”.

The EC50 is the concentration that produces a half-maximal response. As usually defined, the half-life is how long it takes for the measured level to halve. Low values mean rapid decline, high ones slow decline. The Cmax is the peak of the concentration-time curve. As a reminder, the AUC is the area under the concentration-time curve, a measure of exposure.
